Laboratory results: ChEMBL document CHEMBL3994607, “Synthesis of new sarsasapogenin derivatives with cytotoxicity and apoptosis-inducing activities in human breast cancer MCF-7 cells” (Eur J Med Chem, 2017)
Activity calls are given as the source filed them. The rule behind the calls is not given here.

Experiments:
A549 [1] = experiment: Cytotoxicity against human A549 cells assessed as decrease in cell proliferation after 48 hrs by MTT colorimetric assay; assay type: functional, cell-based; conditions: A549, 48 h
HepG2 [2] = experiment: Cytotoxicity against human HepG2 cells assessed as decrease in cell proliferation after 48 hrs by MTT colorimetric assay; assay type: functional, cell-based; conditions: HepG2, 48 h
MCF7 [3] = experiment: Cytotoxicity against human MCF7 cells assessed as decrease in cell proliferation after 48 hrs by MTT colorimetric assay; assay type: functional, cell-based; conditions: for IC50: Homo sapiens, MCF7, 48 h
Hep 3B2 = experiment: Cytotoxicity against human Hep3B cells assessed as decrease in cell proliferation after 48 hrs by MTT colorimetric assay; assay type: functional, cell-based
U-251 = experiment: Cytotoxicity against human U251 cells assessed as decrease in cell proliferation after 48 hrs by MTT colorimetric assay; assay type: functional, cell-based; conditions: U-251, 48 h
Bcap37 = experiment: Cytotoxicity against human Bcap37 cells assessed as decrease in cell proliferation after 48 hrs by MTT colorimetric assay; assay type: functional, cell-based; conditions: Bcap37, 48 h
HepG2 [4] = experiment: Potency index, ratio of sarsasapogenin IC50 to test compound IC50 for human HepG2 cells; assay type: functional
MCF7 [5] = experiment: Induction of apoptosis in human MCF7 cells assessed as formation of apoptotic bodies at 1.5 to 6 uM after 48 hrs by inverted phase contrast microscopic method; assay type: functional, cell-based
MCF7 [6] = experiment: Induction of apoptosis in human MCF7 cells assessed as cell shrinkage at 1.5 to 6 uM after 48 hrs by inverted phase contrast microscopic method; assay type: functional, cell-based
MCF7 [7] = experiment: Induction of apoptosis in human MCF7 cells assessed as late apoptotic cells at 1.5 uM after 48 hrs by annexin-V/propidium iodide staining-based flow cytometric method (reference value: 1.43%); assay type: functional
MCF7 [8] = experiment: Induction of apoptosis in human MCF7 cells assessed as early apoptotic cells at 1.5 uM after 48 hrs by annexin-V/propidium iodide staining-based flow cytometric method (reference value: 1.17%); assay type: functional
MCF7 [9] = experiment: Induction of apoptosis in human MCF7 cells assessed as cell rounding at 1.5 to 6 uM after 48 hrs by inverted phase contrast microscopic method; assay type: functional, cell-based
MCF7 [10] = experiment: Potency index, ratio of sarsasapogenin IC50 to test compound IC50 for human MCF7 cells; assay type: functional
MCF7 [11] = experiment: Induction of apoptosis in human MCF7 cells assessed as early apoptotic cells at 6 uM after 48 hrs by annexin-V/propidium iodide staining-based flow cytometric method (reference value: 1.17%); assay type: functional
MCF7 [12] = experiment: Cell cycle arrest in human MCF7 cells assessed as accumulation at sub-G1 phase at 1.5 to 6 uM after 48 hrs by propidium iodide staining-based flow cytometric method; assay type: functional
MCF7 [13] = experiment: Induction of apoptosis in human MCF7 cells assessed as membrane blebbing at 1.5 to 6 uM after 48 hrs by inverted phase contrast microscopic method; assay type: functional, cell-based
MCF7 [14] = experiment: Induction of apoptosis in human MCF7 cells assessed as late apoptotic cells at 3 uM after 48 hrs by annexin-V/propidium iodide staining-based flow cytometric method (reference value: 1.43%); assay type: functional
MCF7 [15] = experiment: Induction of apoptosis in human MCF7 cells assessed as late apoptotic cells at 6 uM after 48 hrs by annexin-V/propidium iodide staining-based flow cytometric method (reference value: […]); assay type: functional
MCF7 [16] = experiment: Induction of apoptosis in human MCF7 cells assessed as upregulation of cleaved caspase 7 level at 6 uM after 48 hrs by Western blot method relative to control; assay type: functional
MCF7 [17] = experiment: Induction of apoptosis in human MCF7 cells assessed as early apoptotic cells at 3 uM after 48 hrs by annexin-V/propidium iodide staining-based flow cytometric method (reference value: 1.17%); assay type: functional
MCF7 [18] = experiment: Induction of apoptosis in human MCF7 cells assessed as upregulation of cleaved PARP level at 6 uM after 48 hrs by Western blot method relative to control; assay type: functional
MCF7 [19] = experiment: Cell cycle arrest in human MCF7 cells assessed as accumulation at G2/M phase at 1.5 to 6 uM after 48 hrs by propidium iodide staining-based flow cytometric method; assay type: functional
A549 [20] = experiment: Potency index, ratio of sarsasapogenin IC50 to test compound IC50 for human A549 cells; assay type: functional

Compound | IC50 (A549 [1]) [µM] | IC50 (HepG2 [2]) [µM] | IC50 (MCF7 [3]) [µM] | IC50 (Hep 3B2) [µM] | IC50 (U-251) [µM] | IC50 (Bcap37) [µM] | further results
C[C@@H](CC[C@H]1O[C@H]2C[C@H]3[C@@H]4CC[C@@H]5C[C@@H](OCc6ccccc6)CC[C@]5(C)[C@H]4CC[C@]3(C)[C@H]2[C@@H]1C)CN(C)C | 91.3 | 42.7 | > 100 | 28.3 | > 100 | > 100 | –
CCN(CC)C[C@@H](C)CC[C@H]1O[C@H]2C[C@H]3[C@@H]4CC[C@@H]5C[C@@H](OCc6ccc(OC)cc6)CC[C@]5(C)[C@H]4CC[C@]3(C)[C@H]2[C@@H]1C | 14.3 | 13.9 | 4.83 | > 100 | 12.9 | 14.7 | –
C[C@H](CO)CC[C@H]1O[C@H]2C[C@H]3[C@@H]4CC[C@@H]5C[C@@H](OCc6ccccc6)CC[C@]5(C)[C@H]4CC[C@]3(C)[C@H]2[C@@H]1C | 34.4 | 14.5 | 22.1 | 10.1 | 19.8 | 25 | –
CCN(CC)C[C@@H](C)CC[C@H]1O[C@H]2C[C@H]3[C@@H]4CC[C@@H]5C[C@@H](OCc6ccccc6)CC[C@]5(C)[C@H]4CC[C@]3(C)[C@H]2[C@@H]1C | 67.2 | 44 | 93 | 28.2 | > 100 | > 100 | –
C[C@@H](CC[C@H]1O[C@H]2C[C@H]3[C@@H]4CC[C@@H]5C[C@@H](OCc6ccc(F)cc6)CC[C@]5(C)[C@H]4CC[C@]3(C)[C@H]2[C@@H]1C)CN1CCNCC1 | 14.3 | 8.61 | 16.7 | 16.8 | 31.3 | 15.6 | Ratio IC50 (HepG2 [4]): 4.7
COc1ccc(CO[C@H]2CC[C@@]3(C)[C@H](CC[C@@H]4[C@@H]3CC[C@]3(C)[C@H]5[C@H](C)[C@@H](CC[C@H](C)CN6CCNCC6)O[C@H]5C[C@@H]43)C2)cc1 | 4.43 | 4.35 | – | 9.07 | 4.92 | 8.83 | Activity (MCF7 [5]): Active; Activity (MCF7 [3]): Dose-dependent effect; Activity (MCF7 [3]; record 2): 2.95 µM; Activity (MCF7 [6]): Active; Activity (MCF7 [7]): 5.21%; Activity (MCF7 [8]): 3.24%; Activity (MCF7 [9]): Active; Ratio IC50 (MCF7 [10]): 16.7; Activity (MCF7 [11]): 4.35%; Activity (MCF7 [12]): Active; Activity (MCF7 [13]): Active; Activity (MCF7 [14]): 5.8%; Activity (MCF7 [15]): 7.27%; fold change (FC) (MCF7 [16]): 16; Activity (MCF7 [17]): 4.51%; fold change (FC) (MCF7 [18]): 13; Activity (MCF7 [19]): Active
C[C@@H](CC[C@H]1O[C@H]2C[C@H]3[C@@H]4CC[C@@H]5C[C@@H](OCc6ccc(F)cc6)CC[C@]5(C)[C@H]4CC[C@]3(C)[C@H]2[C@@H]1C)CN1CCN(C)CC1 | 13.9 | 35.6 | 44.1 | > 100 | > 100 | > 100 | –
C[C@@H](CC[C@H]1O[C@H]2C[C@H]3[C@@H]4CC[C@@H]5C[C@@H](OCc6ccc(F)cc6)CC[C@]5(C)[C@H]4CC[C@]3(C)[C@H]2[C@@H]1C)CN(C)C | 4.02 | 27.2 | 17.9 | > 100 | 14.1 | > 100 | Ratio IC50 (A549 [20]): 9.5
C[C@@H](CC[C@H]1O[C@H]2C[C@H]3[C@@H]4CC[C@@H]5C[C@@H](OCc6ccc(F)cc6)CC[C@]5(C)[C@H]4CC[C@]3(C)[C@H]2[C@@H]1C)CN1CCCC1 | 8.98 | 4.38 | 5.13 | 12.9 | 7.1 | 9.68 | Ratio IC50 (HepG2 [4]): 9.2
C[C@@H](CC[C@H]1O[C@H]2C[C@H]3[C@@H]4CC[C@@H]5C[C@@H](OCc6ccccc6)CC[C@]5(C)[C@H]4CC[C@]3(C)[C@H]2[C@@H]1C)CN1CCNCC1 | > 100 | > 100 | > 100 | > 100 | > 100 | > 100 | –
COc1ccc(CO[C@H]2CC[C@@]3(C)[C@H](CC[C@@H]4[C@@H]3CC[C@]3(C)[C@H]5[C@H](C)[C@@H](CC[C@H](C)CN(C)C)O[C@H]5C[C@@H]43)C2)cc1 | > 100 | 79.5 | > 100 | 23.4 | > 100 | > 100 | –
